What was measured:
Assay type in all cases: in vivo
Settings in all cases: Postemergence
[1] = tested on: bermudagrass (Cynodon dactylon); test: Test B pre-/postemergence plant response
From the text: (§1) Seeds of plant species selected from blackgrass (Alopecurus myosuroides), downy bromegrass (Bromus tectorum), green foxtail (Setaria viridis), Italian ryegrass (Lolium multiflorum), wheat (Triticum aestivum), wild oat (Avena fatua), deadnettle (henbit deadnettle, Lamium amplexicaule), galium (catchweed bedstraw, Galium aparine), bermudagrass (Cynodon dactylon), Surinam grass (Brachiaria decumbens), cocklebur (Xanthium strumarium), corn (Zea mays), large crabgrass (Digitaria sanguinalis), woolly cupgrass (Eriochloa villosa), giant foxtail (Setaria faberii), goosegrass (Eleusine indica), johnsongrass (Sorghum halepense), kochia (Kochia scoparia), lambsquarters (Chenopodium album), morningglory (Ipomoea coccinea), nightshade (eastern black nightshade, Solanum ptycanthum), yellow nutsedge (Cyperus esculentus), pigweed (Amaranthus retroflexus), ragweed (common ragweed, Ambrosia elatior), Russian thistle (Salsola kali), soybean (Glycine max), sunflower (common oilseed sunflower, Helianthus annuus) and velvetleaf (Abutilon theophrasti) were planted into a blend of loam soil and sand and treated preemergence with test compounds formulated in a non-phytotoxic solvent mixture which included a surfactant.
(§2) At the same time, plants selected from these crop and weed species and also winter barley (Hordeum vulgare), canarygrass (Phalaris minor), chickweed (Stellaria media) and windgrass (Apera spica-venti) were planted in pots containing Redi-Earth® planting medium (Scotts Company, 14111 Scottslawn Road, Marysville, Ohio 43041) comprising spaghnum peat moss, vermiculite, wetting agent and starter nutrients and treated with postemergence applications of some of the test chemicals formulated in the same manner. Plants ranged in height from 2 to 18 cm (1- to 4-leaf stage) for postemergence treatments.
(§3) Treated plants and controls were maintained in a greenhouse for 13 to 15 days, after which time all treated plants were visually evaluated and compared to controls. Plant response ratings, summarized in Table B, are based on a scale of 0 to 100 where 0 is no effect and 100 is complete control. A dash (-) response means no test result.

[2] = tested on: blackgrass (Alopecurus myosuroides); test: Test B pre-/postemergence plant response
From the text: as §1, §2, §3

[3] = tested on: cocklebur (Xanthium strumarium); test: Test B pre-/postemergence plant response
From the text: as §1, §2, §3

[4] = tested on: corn (Zea mays); test: Test B pre-/postemergence plant response
From the text: as §1, §2, §3

[5] = tested on: giant foxtail (Setaria faberii); test: Test B pre-/postemergence plant response
From the text: as §1, §2, §3

[6] = tested on: johnsongrass (Sorghum halepense); test: Test B pre-/postemergence plant response
From the text: as §1, §2, §3

[7] = tested on: kochia (Kochia scoparia); test: Test B pre-/postemergence plant response
From the text: as §1, §2, §3

[8] = tested on: morningglory (Ipomoea coccinea); test: Test B pre-/postemergence plant response
From the text: as §1, §2, §3

[9] = tested on: soybean (Glycine max); test: Test B pre-/postemergence plant response
From the text: as §1, §2, §3

[10] = tested on: wild oat (Avena fatua); test: Test B pre-/postemergence plant response
From the text: as §1, §2, §3

[11] = tested on: canarygrass (Phalaris minor); test: Test B postemergence plant response
Procedure, shortened: (§4)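 Plants at the 1- to 4-leaf stage (2 to 18 cm tall), grown in pots of peat moss/vermiculite medium with wetting agent and starter nutrients, received postemergence applications of test chemicals. After 13 to 15 days in a greenhouse, injury was rated visually against untreated controls on a 0 (no effect) to 100 (complete control) scale.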

[12] = tested on: chickweed (Stellaria media); test: Test B postemergence plant response
Procedure, shortened: as §4

[13] = tested on: windgrass (Apera spica-venti); test: Test B postemergence plant response
Procedure, shortened: as §4

[14] = tested on: winter barley (Hordeum vulgare); test: Test B postemergence plant response
Procedure, shortened: as §4

SMILES: COc1ccc(-n2c(-c3ccccc3)ncc(C(=O)C3=C(O)CCCC3=O)c2=O)cc1 [Compound 4, 5-[(2-hydroxy-6-oxo-cyclohexen-1-yl)carbonyl]-3-(4-methoxyphenyl)-2-phenyl-4(3H)-pyrimidinone]
- pest or weed control at 31 g/ha ([1]; Cynodon dactylon, post-emergence, 31 g ai/ha, scale 0 to 100 (0 no effect, 100 complete control), read-out: Plant response rating, Bermudagrass): 15%
- pest or weed control at 62 g/ha ([1]; Cynodon dactylon, post-emergence, 62 g ai/ha, scale 0 (no effect) to 100 (complete control), 13 to 15 days, read-out: Plant response rating, Bermudagrass): 85%
- pest or weed control at 125 g/ha ([1]; Cynodon dactylon, post-emergence, 125 g ai/ha, scale 0 to 100 (0 no effect, 100 complete control), 13 to 15 days, read-out: Plant response rating, Bermudagrass): 85%
- Bermudagrass plant response rating ([1]; 250 g ai/ha, scale 0 to 100): 100
- pest or weed control at 31 g/ha ([2]; Alopecurus myosuroides, post-emergence, 360 h, 31 g ai/ha, scale 0 to 100 (0 no effect, 100 complete control), read-out: Plant response rating, Blackgrass): 10%
- pest or weed control at 62 g/ha ([2]; Alopecurus myosuroides, post-emergence, 360 h, 62 g ai/ha, scale 0 (no effect) to 100 (complete control), 13 to 15 days, read-out: Plant response rating, Blackgrass): 20%
- pest or weed control at 125 g/ha ([2]; Alopecurus myosuroides, post-emergence, 360 h, 125 g ai/ha, visual rating after 13 to 15 days, scale 0 (no effect) to 100 (complete control)): 30%
- Blackgrass plant response rating ([2]; 250 g ai/ha, scale 0 to 100): 50
- Cocklebur plant response rating ([3]; 250 g ai/ha, scale 0 to 100): 100
- pest or weed control at 31 g/ha ([3]; Xanthium strumarium, post-emergence, 31 g ai/ha, scale 0 to 100 (0 no effect, 100 complete control), read-out: Plant response rating, Cocklebur): 100%
- pest or weed control at 62 g/ha ([3]; Xanthium strumarium, post-emergence, 62 g ai/ha, scale 0 (no effect) to 100 (complete control), 13 to 15 days, read-out: Plant response rating, Cocklebur): 100%
- pest or weed control at 125 g/ha ([3]; Xanthium strumarium, post-emergence, 125 g ai/ha, visual rating after 13 to 15 days, scale 0 (no effect) to 100 (complete control)): 100%
- Corn plant response rating ([4]; 250 g ai/ha, scale 0 to 100): 85
- Corn plant response rating (crop injury, 0 = no effect, 100 = complete kill) at 31 g/ha ([4]; Zea mays, post-emergence, 31 g ai/ha, scale 0 to 100 (0 no effect, 100 complete control)): 10%
- Corn plant response rating (crop injury, 0 = no effect, 100 = complete kill) at 62 g/ha ([4]; Zea mays, post-emergence, 62 g ai/ha, scale 0 (no effect) to 100 (complete control), 13 to 15 days): 25%
- Corn plant response rating (crop injury, 0 = no effect, 100 = complete kill) at 125 g/ha ([4]; Zea mays, post-emergence, 125 g ai/ha, visual rating after 13 to 15 days, scale 0 (no effect) to 100 (complete control)): 50%
- Foxtail, Giant plant response rating ([5]; 250 g ai/ha, scale 0 to 100): 100
- pest or weed control at 31 g/ha ([5]; Setaria faberi, post-emergence, 31 g ai/ha, scale 0 to 100 (0 no effect, 100 complete control), read-out: Plant response rating, Foxtail, Giant): 80%
- pest or weed control at 62 g/ha ([5]; Setaria faberi, post-emergence, 62 g ai/ha, scale 0 (no effect) to 100 (complete control), 13 to 15 days, read-out: Plant response rating, Foxtail, Giant): 98%
- pest or weed control at 125 g/ha ([5]; Setaria faberi, post-emergence, 125 g ai/ha, visual rating after 13 to 15 days, scale 0 (no effect) to 100 (complete control)): 98%
- Johnsongrass plant response rating ([6]; 250 g ai/ha, scale 0 to 100): 98
- pest or weed control at 31 g/ha ([6]; Sorghum halepense, post-emergence, 31 g ai/ha, scale 0 to 100 (0 no effect, 100 complete control), read-out: Plant response rating, Johnsongrass): 45%
- pest or weed control at 62 g/ha ([6]; Sorghum halepense, post-emergence, 62 g ai/ha, scale 0 (no effect) to 100 (complete control), 13 to 15 days, read-out: Plant response rating, Johnsongrass): 80%
- pest or weed control at 125 g/ha ([6]; Sorghum halepense, post-emergence, 125 g ai/ha, visual rating after 13 to 15 days, scale 0 (no effect) to 100 (complete control)): 95%
- pest or weed control at 31 g/ha ([7]; Bassia scoparia, post-emergence, 31 g ai/ha, scale 0 to 100 (0 no effect, 100 complete control), read-out: Plant response rating, Kochia): 80%
- pest or weed control at 62 g/ha ([7]; Bassia scoparia, post-emergence, 62 g ai/ha, scale 0 (no effect) to 100 (complete control), 13 to 15 days, read-out: Plant response rating, Kochia): 100%
- pest or weed control at 125 g/ha ([7]; Bassia scoparia, post-emergence, 125 g ai/ha, visual rating after 13 to 15 days, scale 0 (no effect) to 100 (complete control)): 100%
- Kochia plant response rating ([7]; 250 g ai/ha, scale 0 to 100): 100
- pest or weed control at 31 g/ha ([8]; Ipomoea, post-emergence, 31 g ai/ha, scale 0 to 100 (0 no effect, 100 complete control), read-out: Plant response rating, Morningglory): 60%
- pest or weed control at 62 g/ha ([8]; Ipomoea, post-emergence, 62 g ai/ha, scale 0 (no effect) to 100 (complete control), 13 to 15 days, read-out: Plant response rating, Morningglory): 85%
- pest or weed control at 125 g/ha ([8]; Ipomoea, post-emergence, 125 g ai/ha, visual rating after 13 to 15 days, scale 0 (no effect) to 100 (complete control)): 90%
- Morningglory plant response rating ([8]; 250 g ai/ha, scale 0 to 100): 95
- plant injury at 31 g/ha ([9]; Glycine max, post-emergence, 31 g ai/ha, scale 0 to 100 (0 no effect, 100 complete control), read-out: Plant response rating, Soybean): 95%
- plant injury at 62 g/ha ([9]; Glycine max, post-emergence, 62 g ai/ha, scale 0 (no effect) to 100 (complete control), 13 to 15 days, read-out: Plant response rating, Soybean): 100%
- plant injury at 125 g/ha ([9]; Glycine max, post-emergence, 125 g ai/ha, visual rating after 13 to 15 days, scale 0 (no effect) to 100 (complete control)): 100%
- Soybean plant response rating ([9]; 250 g ai/ha, scale 0 to 100): 100
- pest or weed control at 31 g/ha ([10]; Avena fatua, post-emergence, 31 g ai/ha, scale 0 to 100 (0 no effect, 100 complete control), read-out: Plant response rating, Oat, Wild): 30%
- pest or weed control at 62 g/ha ([10]; Avena fatua, post-emergence, 62 g ai/ha, scale 0 (no effect) to 100 (complete control), 13 to 15 days, read-out: Plant response rating, Oat, Wild): 50%
- pest or weed control at 125 g/ha ([10]; Avena fatua, post-emergence, 125 g ai/ha, visual rating after 13 to 15 days, scale 0 (no effect) to 100 (complete control)): 50%
- Oat, Wild plant response rating ([10]; 250 g ai/ha, scale 0 to 100): 50
- pest or weed control at 31 g/ha ([11]; Phalaris minor, post-emergence, 360 h, 31 g ai/ha, scale 0 to 100 (0 no effect, 100 complete control), read-out: Plant response rating, Canarygrass): 10%
- pest or weed control at 62 g/ha ([11]; Phalaris minor, post-emergence, 360 h, 62 g ai/ha, scale 0 (no effect) to 100 (complete control), 13 to 15 days, read-out: Plant response rating, Canarygrass): 20%
- pest or weed control at 125 g/ha ([11]; Phalaris minor, post-emergence, 360 h, 125 g ai/ha, visual rating after 13 to 15 days, scale 0 (no effect) to 100 (complete control)): 75%
- Canarygrass plant response rating ([11]; 250 g ai/ha, scale 0 to 100): 80
- Chickweed plant response rating ([12]; 250 g ai/ha, scale 0 to 100): 100
- pest or weed control at 31 g/ha ([12]; Stellaria media, post-emergence, 360 h, 31 g ai/ha, scale 0 to 100 (0 no effect, 100 complete control), read-out: Plant response rating, Chickweed): 100%
- pest or weed control at 62 g/ha ([12]; Stellaria media, post-emergence, 360 h, 62 g ai/ha, scale 0 (no effect) to 100 (complete control), 13 to 15 days, read-out: Plant response rating, Chickweed): 100%
- pest or weed control at 125 g/ha ([12]; Stellaria media, post-emergence, 360 h, 125 g ai/ha, visual rating after 13 to 15 days, scale 0 (no effect) to 100 (complete control)): 100%
- pest or weed control at 31 g/ha ([13]; Apera spica-venti, post-emergence, 360 h, 31 g ai/ha, scale 0 to 100 (0 no effect, 100 complete control), read-out: Plant response rating, Windgrass): 50%
- pest or weed control at 62 g/ha ([13]; Apera spica-venti, post-emergence, 360 h, 62 g ai/ha, scale 0 (no effect) to 100 (complete control), 13 to 15 days, read-out: Plant response rating, Windgrass): 55%
- pest or weed control at 125 g/ha ([13]; Apera spica-venti, post-emergence, 360 h, 125 g ai/ha, visual rating after 13 to 15 days, scale 0 (no effect) to 100 (complete control)): 60%
- Windgrass plant response rating ([13]; 250 g ai/ha, scale 0 to 100): 75
- plant injury at 31 g/ha ([14]; Hordeum vulgare, post-emergence, 31 g ai/ha, scale 0 to 100 (0 no effect, 100 complete control), read-out: Plant response rating, Barley): 0%
- plant injury at 62 g/ha ([14]; Hordeum vulgare, post-emergence, 62 g ai/ha, scale 0 (no effect) to 100 (complete control), 13 to 15 days, read-out: Plant response rating, Barley): 0%
- plant injury at 125 g/ha ([14]; Hordeum vulgare, post-emergence, 125 g ai/ha, scale 0 to 100 (0 no effect, 100 complete control), 13 to 15 days, read-out: Plant response rating, Barley): 0%
- Barley plant response rating ([14]; 250 g ai/ha, scale 0 to 100): 10

Source: patent US8952024B2, “Herbicidal pyrimidone derivatives” (E I du Pont de Nemours and Company, priority 2009, dated 2015)
